Data reported in patent US8492413B2, “Pharmaceutical combination of 5-fluorouracil and derivate of 1,4-dihydropyridine and its use in the treatment of cancer” (priority 2009, dated 2013).
Where a name gives a salt, the structure may show the parent alone. Read-outs that look alike come from different tables or passages of the source.

Tests used:
[1] = test system: human breast cancer cells MDA-MB-435s; test: Cell viability of MDA-MB-435s cells, crystal violet staining assay, 72 h exposure; format: cell-based; conditions: for IC50: 72 h, read-out: IC50 (concentration causing 50% cell viability decrease), compound alone
Protocol: Cell viability was measured using modified crystal violet staining (CVS) assay as described in [[…] et al., 1985]. In brief, cells were fixed with 1% glutaraldehyde for 15 minutes, washed with water and stained with 0.05% crystal violet for 15 minutes at room temperature. After removal of residual crystal violet by washing with tap water the crystal violet stain was eluted with ethanol sodium citrate (1:1) buffer, and absorbance at 540 nm was measured using a microplate reader. The IC50 values, corresponding to concentrations of compounds that cause 50% cell viability decrease, were calculated for individual compounds and their combinations and are summarized in Table 1.

[2] = test system: leukaemia P388, murine sarcoma 37 and Walker's carcinosarcome; conditions: cited from earlier work

CCC1C(C(=O)OCC(=O)O)=C(C)NC(C)=C1C(=O)OCC(=O)O [disodium salt of 4-ethyl-2,6-dimethyl-1,4-dihydropyridine-3,5-bis-carbonyloxyacetic acid]
IC50 ([1]; Homo sapiens, MDA-MB-435S): > 2100 µM

CC1=C(C(=O)OCC(=O)[O-])CC(C(=O)OCC(=O)[O-])=C(C)N1.[Na+].[Na+] [Carbatone, Disodium salt of carboxylate-methyl ester of 2,6-dimethyl-1,4-dihydropyridine-3,5-dicarboxylic acid]
Effect on cytostatic activity of cyclophosphane, 5-fluorouracil and arabisosyl cytosine ([2]; against leukaemia P388, murine sarcoma 37 and Walker's carcinosarcome): potentiates the cytostatic activity
Antitumour activity of the compound itself ([2]; alone): exhibited no antitumour activity
Effect on cyclophosphane toxicity ([2]; mice): decreasing the cyclophosphane toxicity
Effect on the cytotoxic effect of 5-FU (in words) ([1]; combined treatment with 5-FU, MDA-MB-435s): synergistically potentiates the cytotoxic effect of 5-FU
IC50 ([1]; single agent, MDA-MB-435s): 1320 µM

O=c1[nH]cc(F)c(=O)[nH]1 [Example 5-FU, 5-Fluorouracil]
IC50 ([1]; Homo sapiens, single agent, MDA-MB-435s): 30 µM

CC1=C(C(=O)OCC(=O)O)C(C)C(C(=O)OCC(=O)O)=C(C)N1 [disodium salt of 2,4,6-trimethyl-1,4-dihydropyridine-3,5-bis-carbonyloxyacetic acid]
IC50 ([1]; Homo sapiens, MDA-MB-435S): > 2690 µM
